Patent publication US9801833B2, “Compositions and methods using tiglic aldehyde” (NESTEC S.A., priority 2013, dated 2017)
Where two headings read alike, the source gives them in different places.

Tests used:
TRPA1 [1] = molecular target: T1, TRPA1 (Homo sapiens, UniProt O75762); assay: in vitro activation of TRPA1 in cells (FIG. 7); assay type: cell-based
T1 construct: expressed in transfected cells

TRPV1 [2] = molecular target: T2, TRPV1 (Homo sapiens, UniProt Q8NER1); assay: in vitro activation of TRPV1 in cells (FIG. 7); assay type: cell-based; conditions: FIG. 7, triangles
T2 construct: expressed in transfected cells
T2 sequence (Q8NER1 whole entry, species assumed): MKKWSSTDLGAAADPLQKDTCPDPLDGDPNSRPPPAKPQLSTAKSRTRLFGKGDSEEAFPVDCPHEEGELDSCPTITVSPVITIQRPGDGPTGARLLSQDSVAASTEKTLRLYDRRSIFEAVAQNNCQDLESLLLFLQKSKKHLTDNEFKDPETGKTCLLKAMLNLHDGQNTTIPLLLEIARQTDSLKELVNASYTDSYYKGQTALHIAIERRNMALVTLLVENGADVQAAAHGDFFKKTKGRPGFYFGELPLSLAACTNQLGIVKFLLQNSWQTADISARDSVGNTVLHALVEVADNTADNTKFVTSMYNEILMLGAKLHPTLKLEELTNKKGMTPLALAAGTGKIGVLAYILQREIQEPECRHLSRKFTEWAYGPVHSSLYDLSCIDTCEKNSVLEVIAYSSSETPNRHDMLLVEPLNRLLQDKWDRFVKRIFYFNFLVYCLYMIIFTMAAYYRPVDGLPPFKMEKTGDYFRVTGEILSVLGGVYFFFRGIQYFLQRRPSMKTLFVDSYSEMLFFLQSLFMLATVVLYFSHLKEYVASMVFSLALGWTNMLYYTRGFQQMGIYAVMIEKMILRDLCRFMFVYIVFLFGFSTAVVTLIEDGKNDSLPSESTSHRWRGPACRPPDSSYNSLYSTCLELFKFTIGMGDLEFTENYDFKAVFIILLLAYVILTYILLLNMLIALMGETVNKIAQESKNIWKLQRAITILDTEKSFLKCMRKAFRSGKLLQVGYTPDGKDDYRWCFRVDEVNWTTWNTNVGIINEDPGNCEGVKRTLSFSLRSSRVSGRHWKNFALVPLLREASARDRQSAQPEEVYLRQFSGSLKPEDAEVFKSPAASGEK

TRPM8 [3] = molecular target: T3, TRPM8 (Homo sapiens, UniProt Q7Z2W7); assay: in vitro activation of hTRPM8 in cells (FIG. 7); assay type: cell-based; conditions: FIG. 7, squares
T3 construct: expressed in transfected cells
T3 sequence (Q7Z2W7 whole entry): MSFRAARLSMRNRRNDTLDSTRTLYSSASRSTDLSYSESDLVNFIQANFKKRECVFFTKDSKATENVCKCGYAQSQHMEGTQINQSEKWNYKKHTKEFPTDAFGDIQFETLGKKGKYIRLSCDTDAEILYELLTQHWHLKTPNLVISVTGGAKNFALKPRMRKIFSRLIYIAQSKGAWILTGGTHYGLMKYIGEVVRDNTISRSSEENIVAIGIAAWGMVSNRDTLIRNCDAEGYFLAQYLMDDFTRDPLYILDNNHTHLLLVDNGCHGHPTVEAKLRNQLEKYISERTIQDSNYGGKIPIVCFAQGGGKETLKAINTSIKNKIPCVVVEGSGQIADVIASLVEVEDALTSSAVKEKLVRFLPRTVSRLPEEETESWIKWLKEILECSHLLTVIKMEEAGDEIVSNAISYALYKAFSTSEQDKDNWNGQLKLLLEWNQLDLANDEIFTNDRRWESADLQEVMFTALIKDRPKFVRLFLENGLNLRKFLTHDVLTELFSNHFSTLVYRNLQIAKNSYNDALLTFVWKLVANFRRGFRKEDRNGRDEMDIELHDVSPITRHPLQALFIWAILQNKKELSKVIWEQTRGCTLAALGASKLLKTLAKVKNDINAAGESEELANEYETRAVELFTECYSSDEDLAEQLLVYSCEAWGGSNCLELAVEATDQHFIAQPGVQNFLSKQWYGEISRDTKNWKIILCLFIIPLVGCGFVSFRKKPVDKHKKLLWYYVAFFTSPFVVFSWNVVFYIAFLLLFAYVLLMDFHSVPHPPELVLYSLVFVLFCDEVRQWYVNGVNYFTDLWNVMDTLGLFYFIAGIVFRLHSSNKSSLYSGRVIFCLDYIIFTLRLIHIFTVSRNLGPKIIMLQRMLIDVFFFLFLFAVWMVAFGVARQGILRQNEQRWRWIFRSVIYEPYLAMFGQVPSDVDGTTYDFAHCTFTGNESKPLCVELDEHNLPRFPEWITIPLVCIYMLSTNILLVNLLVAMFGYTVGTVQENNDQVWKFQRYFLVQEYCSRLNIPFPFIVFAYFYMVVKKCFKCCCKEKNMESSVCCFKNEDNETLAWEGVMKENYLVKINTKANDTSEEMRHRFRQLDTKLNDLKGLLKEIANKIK

"empty" cells = assay: in vitro activation of "empty" cells (FIG. 7); assay type: cell-based
TRPA1 [4] = molecular target: T1, TRPA1; assay: desensitization of TRPA1 by pretreatment fifteen minutes before cinnamaldehyde (FIGS. 8A, 8B); assay type: cell-based; conditions: applied to cells fifteen minutes before cinnamaldehyde
Experimental: (§1) Specifically, tiglic aldehyde was applied to cells fifteen minutes before cinnamaldehyde, icilin and capsaicin, which are specific agonists for TRPA1, TRPM8 and TRPV1 cation channels, respectively. After specific agonist application, the cation channel […] was measured. […] The left bars in each graph represent the controls lacking tiglic aldehyde pretreatment, the right bars in each graph represent the samples including tiglic aldehyde pretreatment.

TRPV1 [5] = molecular target: T2, TRPV1; assay: desensitization of TRPV1 by pretreatment fifteen minutes before capsaicin (FIGS. 8A, 8B); assay type: cell-based; conditions: applied to cells fifteen minutes before capsaicin
Experimental: as §1

TRPM8 [6] = molecular target: T3, TRPM8; assay: desensitization of TRPM8 by pretreatment fifteen minutes before icilin (FIGS. 8A, 8B); assay type: cell-based; conditions: applied to cells fifteen minutes before icilin
Experimental: as §1

[7] = Excerpt: Without wishing to be bound by theory, the present inventors believe that activation of TRPA1 is effective to 1) help to provoke the swallowing reflex of dysphagic patients, 2) decrease appetite by delaying gastric emptying, 3) reduce body weight gain, and 4) reduce glycemia by improving insulin sensitivity or glucose tolerance, 5) improve mood, memory or cognition. Tiglic aldehyde is described as having fresh, fruity, green, pulpy and almond nutty nuances (Fenaroli's Handbook of Flavor Ingredients, sixth edition), making it more pleasant compared to other TRPA1 agonists.
mice [8] = assay: body weight gain in mice with chronic ingestion (FIG. 3); assay type: in vivo; conditions: mice chronically fed high fat diet containing 0.2 wt %, vs same diet without
mice [9] = assay: insulin sensitivity in mice with chronic ingestion (FIG. 4); assay type: in vivo; conditions: mice chronically fed high fat diet containing 0.2 wt %, vs same diet without
mice [10] = assay: short term food intake after a single ingestion in mice (FIG. 5); assay type: in vivo; conditions: vs sham gavage
mice [11] = assay: gastric emptying after a single ingestion in mice (FIG. 6); assay type: in vivo; conditions: vs sham gavage
TRPA1 [12] = molecular target: T1, TRPA1; conditions: read-out: EC50 of TRPA1 activation; cited from earlier work
TRPV1 [13] = molecular target: T2, TRPV1; conditions: cited from earlier work
TRPM8 [14] = molecular target: T3, TRPM8; conditions: cited from earlier work

T1 sequence (O75762 whole entry, species assumed): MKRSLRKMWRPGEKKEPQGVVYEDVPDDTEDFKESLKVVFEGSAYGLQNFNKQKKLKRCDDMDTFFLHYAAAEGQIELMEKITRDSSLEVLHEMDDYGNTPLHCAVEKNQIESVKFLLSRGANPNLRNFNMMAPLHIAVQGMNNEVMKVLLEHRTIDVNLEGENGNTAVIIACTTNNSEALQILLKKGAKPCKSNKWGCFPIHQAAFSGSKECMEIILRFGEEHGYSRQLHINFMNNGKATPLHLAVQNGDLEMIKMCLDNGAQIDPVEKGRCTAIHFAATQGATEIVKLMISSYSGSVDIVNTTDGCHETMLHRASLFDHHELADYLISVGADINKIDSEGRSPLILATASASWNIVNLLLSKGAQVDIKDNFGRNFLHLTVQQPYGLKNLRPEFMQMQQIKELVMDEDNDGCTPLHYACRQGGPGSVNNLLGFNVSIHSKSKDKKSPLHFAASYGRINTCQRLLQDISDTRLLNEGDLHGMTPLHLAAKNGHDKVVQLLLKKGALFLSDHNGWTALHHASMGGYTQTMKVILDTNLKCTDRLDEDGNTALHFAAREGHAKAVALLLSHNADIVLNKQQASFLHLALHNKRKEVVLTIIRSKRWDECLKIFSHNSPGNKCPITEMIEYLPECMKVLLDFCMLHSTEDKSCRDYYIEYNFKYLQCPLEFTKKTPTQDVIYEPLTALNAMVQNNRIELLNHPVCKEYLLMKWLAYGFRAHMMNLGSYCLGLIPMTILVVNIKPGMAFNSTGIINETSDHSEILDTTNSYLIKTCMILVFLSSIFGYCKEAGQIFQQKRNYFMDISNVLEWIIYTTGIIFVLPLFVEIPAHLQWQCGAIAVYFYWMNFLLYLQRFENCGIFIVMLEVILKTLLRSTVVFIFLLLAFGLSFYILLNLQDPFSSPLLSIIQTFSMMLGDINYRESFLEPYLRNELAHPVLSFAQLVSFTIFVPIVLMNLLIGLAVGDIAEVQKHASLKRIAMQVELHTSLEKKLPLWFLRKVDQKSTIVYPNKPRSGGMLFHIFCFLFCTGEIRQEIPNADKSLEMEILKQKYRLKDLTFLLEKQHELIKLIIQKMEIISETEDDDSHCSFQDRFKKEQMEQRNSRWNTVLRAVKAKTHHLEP

Row | Structure (SMILES) | activation of TRPA1 (TRPA1 [1]; FIG. 7, diamonds) | efficacy of TRPA1 activation relative to cinnamaldehyde (TRPA1 [1]; relative to known TRPA1 agonist cinnamaldehyde) | activation of TRPV1 (TRPV1 [2]) | activation of hTRPM8 (TRPM8 [3]) | activation of "empty" cells ("empty" cells) | desensitization of TRPA1 (TRPA1 [4]) | desensitization of TRPV1 (TRPV1 [5]) | desensitization of TRPM8 (TRPM8 [6]) | irritancy [7] | body weight gain (mice [8]) | insulin sensitivity (mice [9]) | short term food intake (mice [10]) | gastric emptying (mice [11]) | EC50 (TRPA1 [12]) | activation of TRPV1 (TRPV1 [13]) | activation of TRPM8 (TRPM8 [14])
1 | C/C=C(\C)C=O [tiglic aldehyde] | activated TRPA1 (diamonds) in a dose-dependent fashion | 120% | no activation was observed | no activation was observed | no activation was observed | does not desensitize | does not desensitize | does not desensitize | not an irritant | – | – | – | – | – | – | –
2 | O=CC=Cc1ccccc1 [cinnamaldehyde] | – | – | – | – | – | – | – | – | – | gained less weight | improved insulin sensitivity | reduction in short term food intake | delayed gastric emptying | ~60 µM | not | not
